These results are taken from patent US11046699B2, “Pyrazolo-pyrimidin-amino-cycloalkyl compounds and their therapeutic uses” (RAPT THERAPEUTICS, INC., priority 2018, dated 2021).

Structures can show the parent of a compound that is named as a salt.

The target in one assay is GCN2 (Homo sapiens, UniProt Q9P2K8). Nature of the assay: GCN2 enzymatic endpoint assay: phosphorylation of GFP-eIF2α measured by TR-FRET (Lanthascreen). The format is biochemical. The note with it: GCN2 biochemical IC50; 4 nM GCN2, 2 μM ATP, 80 nM GFP-eIF2α, 90 min RT; read-out: GCN2 activity. The procedure, abridged: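 Read-out is the TR-FRET ratio of acceptor signal at 520 nm to terbium donor at 495 nm, rising with antibody binding to phosphorylated GFP-eIF2α. Endpoint format: 2 μM ATP, 80 nM substrate, 90 minutes at room temperature, EDTA stop.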
Chain of GCN2 (Q9P2K8 whole entry): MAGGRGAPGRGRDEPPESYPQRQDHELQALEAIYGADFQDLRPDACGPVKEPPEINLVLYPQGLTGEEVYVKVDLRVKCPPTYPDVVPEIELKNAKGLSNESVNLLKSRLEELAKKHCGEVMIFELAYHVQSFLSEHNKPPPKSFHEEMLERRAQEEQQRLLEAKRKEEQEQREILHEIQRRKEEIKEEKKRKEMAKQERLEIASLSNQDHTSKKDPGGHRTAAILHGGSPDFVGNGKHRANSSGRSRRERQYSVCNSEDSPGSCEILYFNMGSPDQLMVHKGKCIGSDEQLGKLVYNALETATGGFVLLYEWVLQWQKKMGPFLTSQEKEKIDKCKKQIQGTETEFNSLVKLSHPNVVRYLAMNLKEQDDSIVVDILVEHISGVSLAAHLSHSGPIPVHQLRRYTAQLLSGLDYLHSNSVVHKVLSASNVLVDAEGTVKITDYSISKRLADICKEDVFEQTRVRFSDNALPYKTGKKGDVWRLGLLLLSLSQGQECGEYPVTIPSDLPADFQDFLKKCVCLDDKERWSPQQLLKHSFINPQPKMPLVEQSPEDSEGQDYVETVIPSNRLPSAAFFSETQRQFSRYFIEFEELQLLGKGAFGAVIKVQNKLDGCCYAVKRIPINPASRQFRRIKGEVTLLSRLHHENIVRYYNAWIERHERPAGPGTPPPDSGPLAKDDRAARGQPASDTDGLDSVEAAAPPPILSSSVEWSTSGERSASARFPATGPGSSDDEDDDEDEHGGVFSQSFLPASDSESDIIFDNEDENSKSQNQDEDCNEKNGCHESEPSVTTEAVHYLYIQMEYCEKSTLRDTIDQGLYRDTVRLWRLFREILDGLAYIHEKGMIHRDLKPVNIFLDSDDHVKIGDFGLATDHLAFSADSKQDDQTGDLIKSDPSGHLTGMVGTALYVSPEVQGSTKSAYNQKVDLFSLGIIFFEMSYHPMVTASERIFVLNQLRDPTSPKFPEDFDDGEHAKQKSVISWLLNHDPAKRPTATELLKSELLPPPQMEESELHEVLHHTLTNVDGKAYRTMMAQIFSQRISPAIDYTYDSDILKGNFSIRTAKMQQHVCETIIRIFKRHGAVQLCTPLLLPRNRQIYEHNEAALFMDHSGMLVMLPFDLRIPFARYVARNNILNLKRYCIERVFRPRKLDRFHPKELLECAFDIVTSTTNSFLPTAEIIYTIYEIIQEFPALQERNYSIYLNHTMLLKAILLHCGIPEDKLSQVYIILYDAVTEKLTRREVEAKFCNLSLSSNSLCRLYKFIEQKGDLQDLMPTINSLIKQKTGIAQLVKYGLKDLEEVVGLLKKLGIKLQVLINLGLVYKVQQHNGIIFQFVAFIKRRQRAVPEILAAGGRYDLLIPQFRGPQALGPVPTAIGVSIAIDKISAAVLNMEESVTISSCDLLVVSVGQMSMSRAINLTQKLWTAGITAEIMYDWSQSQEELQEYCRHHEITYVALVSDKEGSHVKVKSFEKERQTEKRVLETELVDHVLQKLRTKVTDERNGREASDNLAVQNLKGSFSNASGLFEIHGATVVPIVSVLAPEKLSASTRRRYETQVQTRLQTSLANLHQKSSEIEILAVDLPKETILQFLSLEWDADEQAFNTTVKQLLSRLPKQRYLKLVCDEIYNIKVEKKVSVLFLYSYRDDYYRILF
For the molecule `CNC(=O)[C@]1(C)CC[C@@H](Nc2ncc3c(Br)nn(-c4ccc5nnccc5c4)c3n2)C1` [Example 42, (1R,3R)-3-((3-bromo-1-(cinnolin-6-yl)-1H-pyrazolo[3,4-d]pyrimidin-6-yl)amino)-N,1-dimethylcyclopentane-1-carboxamide; 2,2,2-trifluoroacetic acid], the IC50 was less than 25 nM. On the same count and under the same terms, as for `CNC(=O)[C@]1(C)CC[C@@H](Nc2ncc3c(Br)nn(-c4cc(CCN)c5ncccc5c4)c3n2)C1` [Example 32, (1R,3R)-3-((1-(8-(2-aminoethyl)quinolin-6-yl)-3-bromo-1H-pyrazolo[3,4-d]pyrimidin-6-yl)amino)-N,1-dimethylcyclopentane-1-carboxamide; 2,2,2-trifluoroacetic acid], the figure is less than 25 nM.

`CNC(=O)[C@]1(C)CC[C@@H](Nc2ncc3c(Br)nn(-c4cc(Cl)cc(CCN)c4)c3n2)C1` [Example 41, (1R,3R)-3-((1-(3-(2-aminoethyl)-5-chlorophenyl)-3-bromo-1H-pyrazolo[3,4-d]pyrimidin-6-yl)amino)-N,1-dimethylcyclopentane-1-carboxamide hydrochloride]: the IC50 was less than 25 nM.

Still in this assay, the particulars now being: tested as described in Example 77; compound and/or hydrochloride, dihydrochloride or trifluoroacetic acid salt; read-out: IC 50 Activity.
For `O=C([C@@H]1CC[C@@H](Nc2ncc3c(Br)nn(-c4cc(F)c5ncccc5c4)c3n2)C1)N1CCN2C(=O)CC[C@@H]2C1` [(8aR)-2-[(1R,3R)-3-[[3-bromo-1-(8-fluoro-6-quinolyl)pyrazolo[3,4-d]pyrimidin-6-yl]amino]cyclopentane-carbonyl]-1,3,4,7,8,8a-hexahydro-pyrrolo[1,2-a]pyrazin-6-one], the IC50 was less than 25 nM.

On to `CNC(=O)[C@]1(C)CC[C@@H](Nc2ncc3c(Br)nn(-c4cc(Cl)cc(CS(C)(=O)=O)c4)c3n2)C1` [(1R,3R)-3-[[3-bromo-1-[3-chloro-5-(methylsulfonylmethyl)phenyl]pyrazolo [3,4-d]pyrimidin-6-yl]amino]-N,1-dimethyl-cyclopentanecarboxamide], for which the IC50 was in the range of 25 to 200 nM. For `Cc1nnc(-c2ccc(-n3nc(Br)c4cnc(N[C@@H]5CC[C@@](C)(N)C5)nc43)cc2)s1`, the IC50 was 25 to 200 nM. `CNC(=O)[C@]1(C)CC[C@@H](Nc2ncc3c(Br)nn(-c4ccc(-c5nnc(C(C)(C)N)s5)c(F)c4)c3n2)C1` [(1R,3R)-3-[[1-[4-[5-(1-amino-1-methyl-ethyl)-1,3,4-thiadiazol-2-yl]-3-fluoro-phenyl]-3-bromo-pyrazolo[3,4-d]pyrimidin-6-yl]amino]-N,1-dimethyl-cyclopentanecarboxamide]: the IC50 was less than 25 nM. The same measure, in the same setting: in the case of `Cc1nnc(-c2ccc(-n3nc(Br)c4cnc(N[C@@H]5CC[C@@](C)(C(=O)N6CCNCC6)C5)nc43)cc2)s1` [[(1R,3R)-3-[[3-bromo-1-[4-(5-methyl-1,3,4-thiadiazol-2-yl)phenyl]pyrazolo [3,4-d]pyrimidin-6-yl]amino]-1-methyl-cyclopentyl]-piperazin-1-yl-methanone] it was 25 to 200 nM.

Turning to `CNC(=O)[C@]1(C)CC[C@@H](Nc2ncc3c(Br)nn(-c4ccc5c(c4)CN(S(C)(=O)=O)CC5)c3n2)C1` [(1R,3R)-3-[[3-bromo-1-(2-methylsulfonyl-3,4-dihydro-1H-isoquinolin-7-yl)pyrazolo [3,4-d]pyrimidin-6-yl]amino]-N,1-dimethyl-cyclopentanecarboxamide], the IC50 lay in the range of 25 to 200 nM.

As for `Fc1cc(-n2nc(Br)c3cnc(N[C@H]4CCOC4)nc32)cc2cccnc12` [3-bromo-1-(8-fluoro-6-quinolyl)-N-[(3S)-tetrahydrofuran-3-yl]pyrazolo [3,4-d]pyrimidin-6-amine], the IC50 lay in the range of 25 to 200 nM. On to `CNC(=O)[C@]1(C)CC[C@@H](Nc2ncc3c(Br)nn(-c4ccc5nc(N6CCN(C)CC6)ncc5c4)c3n2)C1` [(1R,3R)-3-[[3-bromo-1-[2-(4-methylpiperazin-1-yl)quinazolin-6-yl]pyrazolo[3,4-d]pyrimidin-6-yl]amino]-N,1-dimethyl-cyclo-pentanecarboxamide; 2,2,2-trifluoroacetic acid], for which the IC50 fell in the range of 25 to 200 nM. For the molecule `COCCNC(=O)[C@@H]1CC[C@@H](Nc2ncc3c(Br)nn(-c4ccc(-n5cccn5)cc4)c3n2)C1` [(1R,3R)-3-((1-(4-(1H-pyrazol-1-yl)phenyl)-3-bromo-1H-pyrazolo[3,4-d]pyrimidin-6-yl)amino)-N-(2-methoxyethyl)cyclopentane-1-carboxamide], the IC50 lay in the range of 200 to 500 nM.

For the molecule `CNC(=O)[C@]1(C)CC[C@@H](Nc2ncc3c(Br)nn(-c4ccc(-c5cnccn5)nc4)c3n2)C1` [(1R,3R)-3-[[3-bromo-1-(6-pyrazin-2-yl-3-pyridyl)pyrazolo[3,4-d]pyrimidin-6-yl]amino]-N,1-dimethyl-cyclopentane-carboxamide], the IC50 fell in the range of 25 to 200 nM.

In the case of `CNC(=O)[C@]1(C)CC[C@@H](Nc2ncc3c(Br)nn(-c4cc([C@H](C)CO)c5ncccc5c4)c3n2)C1` [(1R,3R)-3-[[3-bromo-1-[8-[(1S)-2-hydroxy-1-methyl-ethyl]-6-quinolyl]pyrazolo[3,4-d]pyrimidin-6-yl]amino]-N,1-dimethyl-cyclopentanecarboxamide], the IC50 is less than 25 nM. Regarding `N#Cc1cc(-n2nc(Br)c3cnc(N[C@@H]4CC[C@@H](C(=O)NC[C@@H]5COCCN5)C4)nc32)cc2cccnc12` [(1R,3R)-3-((3-bromo-1-(8-cyanoquinolin-6-yl)-1H-pyrazolo[3,4-d]pyrimidin-6-yl)amino)-N-(((R)-morpholin-3-yl)methyl)cyclopentane-1-carboxamide], the IC50 was less than 25 nM.

`N#Cc1cc(-n2nc(Br)c3cnc(N[C@@H]4CC[C@@H](C(=O)NC5CCS(=O)(=O)CC5)C4)nc32)cc2cccnc12` [(1R,3R)-3-((3-bromo-1-(8-cyanoquinolin-6-yl)-1H-pyrazolo[3,4-d]pyrimidin-6-yl)amino)-N-(1,1-dioxidotetrahydro-2H-thiopyran-4-yl)cyclopentane-1-carboxamide]: the IC50 is 25 to 200 nM. As to `CNC(=O)[C@@H]1CC[C@@H](Nc2ncc3c(Br)nn(-c4cc(C(F)F)c5ncccc5c4)c3n2)C1` [(1R,3R)-3-((3-bromo-1-(8-(difluoromethyl)quinolin-6-yl)-1H-pyrazolo[3,4-d]pyrimidin-6-yl)amino)-N-methylcyclopentane-1-carboxamide], the IC50 was in the range of 25 to 200 nM. On to `CC(C)OCCNC(=O)[C@@H]1CC[C@@H](Nc2ncc3c(Br)nn(-c4ccc5ncccc5c4)c3n2)C1` [(1R,3R)-3-((3-bromo-1-(quinolin-6-yl)-1H-pyrazolo[3,4-d]pyrimidin-6-yl)amino)-N-(2-isopropoxyethyl)cyclopentane-1-carboxamide], for which the IC50 is 200 to 500 nM. As to `CNC(=O)[C@]1(C)CC[C@@H](Nc2ncc3c(Br)nn(-c4ccc(-c5cncnc5)cc4)c3n2)C1` [(1R,3R)-3-[[3-bromo-1-(4-pyrimidin-5-ylphenyl)pyrazolo[3,4-d]pyrimidin-6-yl]amino]-N,1-dimethyl-cyclopentane-carboxamide], the IC50 was in the range of 25 to 200 nM. As to `O=C1CC(CNC(=O)[C@@H]2CC[C@@H](Nc3ncc4c(Br)nn(-c5ccc6ncccc6c5)c4n3)C2)CCN1` (stereo partly drawn) [(1R,3R)-3-((3-bromo-1-(quinolin-6-yl)-1H-pyrazolo[3,4-d]pyrimidin-6-yl)amino)-N-((2-oxopiperidin-4-yl)methyl)cyclopentane-1-carboxamide], the IC50 fell in the range of 25 to 200 nM.

As for `CS(=O)(=O)CCNC(=O)[C@@H]1CC[C@@H](Nc2ncc3c(Br)nn(-c4ccc5ncccc5c4)c3n2)C1` [(1R,3R)-3-((3-bromo-1-(quinolin-6-yl)-1H-pyrazolo[3,4-d]pyrimidin-6-yl)amino)-N-(2-(methylsulfonyl)ethyl)cyclopentane-1-carboxamide], the IC50 was 200 to 500 nM. In the case of `CNC(=O)[C@]1(O)CC[C@@H](Nc2ncc3c(Br)nn(-c4cc(F)c5ncccc5c4)c3n2)C1` [(1S,3R)-3-[[3-bromo-1-(8-fluoro-6-quinolyl)pyrazolo[3,4-d]pyrimidin-6-yl]amino]-1-hydroxy-N-methyl-cyclopentanecarboxamide], the IC50 was in the range of 25 to 200 nM. The same measure, in the same setting: as for `C[C@@]1(C(=O)N2CCN3C(=O)CC[C@@H]3C2)CC[C@@H](Nc2ncc3c(Br)nn(-c4cc(F)c5ncccc5c4)c3n2)C1`, the figure is 25 to 200 nM; as for `CNC(=O)[C@]1([C@H](C)C#N)CC[C@@H](Nc2ncc3c(Br)nn(-c4ccc(-c5nnc(C)s5)cc4)c3n2)C1` [(1R,3R)-3-[[3-bromo-1-[4-(5-methyl-1,3,4-thiadiazol-2-yl)phenyl]pyrazolo [3,4-d]pyrimidin-6-yl]amino]-1-[(1S)-1-cyanoethyl]-N-methyl-cyclopentane-carboxamide], 25 to 200 nM; as for `CNC(=O)[C@]1(C)CC[C@@H](Nc2ncc3c(Br)nn(-c4ccc(-c5ncco5)c([C@@H](C)C#N)c4)c3n2)C1` [(1R,3R)-3-[[3-bromo-1-[3-[(1R)-1-cyanoethyl]-4-oxazol-2-yl-phenyl]pyrazolo[3,4-d]pyrimidin-6-yl]amino]-N,1-dimethyl-cyclopentane-carboxamide], 25 to 200 nM. In the case of `O=C(NC[C@H]1COCCN1)[C@@H]1CC[C@@H](Nc2ncc3c(Br)nn(-c4cc(F)c5ncccc5c4)c3n2)C1`, the IC50 lay in the range of 25 to 200 nM. With `CNC(=O)[C@]1(C)CC[C@@H](Nc2ncc3c(Br)nn(-c4ccc5c(c4)CN(C(=O)C4CNC4)C5)c3n2)C1` [(1R,3R)-3-[[1-[2-(azetidine-3-carbonyl)isoindolin-5-yl]-3-bromo-pyrazolo[3,4-d]pyrimidin-6-yl]amino]-N,1-dimethyl-cyclopentanecarboxamide], the IC50 was 25 to 200 nM. Consider `CNC(=O)[C@]1(C)CC[C@@H](Nc2ncc3c(Br)nn(-c4cc(OCC#N)c5c(c4)OCC(=O)N5C)c3n2)C1` [(1R,3R)-3-[[3-bromo-1-[5-(cyano-methoxy)-4-methyl-3-oxo-1,4-benzoxazin-7-yl]pyrazolo[3,4-d]pyrimidin-6-yl]amino]-N,1-dimethyl-cyclopentane-carboxamide], for which the IC50 is less than 25 nM. For the molecule `O=C(N[C@H]1CC[C@](O)(C(F)(F)F)CC1)[C@@H]1CC[C@@H](Nc2ncc3c(Br)nn(-c4ccc5ncccc5c4)c3n2)C1`, the IC50 fell in the range of 500 to 1000 nM.

For the molecule `CNC(=O)[C@]1(C)CC[C@@H](Nc2ncc3c(Br)nn(-c4ccc(-c5nnc(C(C)(C)O)s5)cc4)c3n2)C1`, the IC50 fell in the range of 25 to 200 nM.
